Common to all, as to experiment: cells
Common to all, as to design: CellTiter-Glo 2.0 luminescence proliferation/viability assay, single agents, human tumour cell line panel

One assay concerns HCC1588. The note with it: HCC1588, 96 h; single agent; read-out: IC50 SMACm. On the procedure:
(§1) The effect of BETi, SMACm alone or in combination cell viability was determined using a 96-h CellTiter-Glo2.0 proliferation assay. Cells were seeded in assay plates and placed at 37°C with 5% CO2 for twenty-four hours before treatment. Compounds were added in triplicate in gradients of increasing concentrations, in case of SMACm ranging between 4.5 nM and 10 μM and in case of BETi between 1.4 nM and 3 μM. DMSO served as control. Cell viability was measured by luminescence analysis using luminescence read on Envision plate readers (PerkinElmer). An additional set of colorectal cancer cell lines was assayed with technical duplicates and experimental triplicates. Cell viability was measured by luminescence analysis using luminescence read on Tecan Plate reader. The effects of drug combinations were analyzed using the Bliss Independence Model.[34] Synergy score was calculated by the average of 3 highest and 3 lowest BLISS Gaps between predicted and measured POC (Percentage of Control) values. To investigate the synergistic interaction between BI 894999 (hereafter, BETi) and BI 891065 (hereafter, SMACm), we evaluated the in vitro anti-tumor effect of the single agents or the combination in a large panel of 151 cancer cell lines of different tissue origin: CRC, gastric cancer, non-small cell lung cancer (NSCLC), and pancreatic carcinoma (Figures 1C–1F). As a mono-agent, SMACm was able to inhibit cell proliferation only in a limited number of tested cell lines (4%, Table S2). Most of the cell lines responded to inhibition by BETi, with sensitivity ranging from 10 to 100 nM (Figure 1C). Bliss Gap analysis, performed to analyze the effect of the BETi+SMACm combination on tumor cell growth (Figures 1D–1F), unveiled potent synergistic activity across the cell models tested (Figure 1E), independent of tumor type (Figure 1F).  Figure 1 The combinatorial effect of BI 894999 and BI 891065 across a panel of human tumor cell lines (A) Selectivity and potency profiles of BI 891065. Top left, structure of BI 891065. Top right, IC50 values for BI 891065 inhibition of cIAP1, cIAP2, and XIAP. Bottom, physicochemical properties of […]. (B) WES (Simple Western System) analysis of cIAP1, cIAP2, and XIAP levels upon treatment of HT-29 cells with indicated concentrations of BI 891065 for 6 h (C) IC50 values determined in cell proliferation assays (n = 151) individually for BETi BI 894999 and SMACm BI 891065. Each point represents a cell line tested. (D) Example of proliferation assay for synergy analysis in LoVo cell line; shown is combination plate map matrix and the cell growth inhibition (CGI) at the indicated concentrations; CGI values < 100%: tumor cell growth, CGI 100%: tumor cell stasis, and CGI > 100%: tumor cell killing. (E) Synergy scores across the tested panel of cell lines obtained using Bliss synergy analysis. (F) Violin plots showing the synergy scores for BETi and SMACm combination across indications. N is the number of cell lines tested in each indication group.

For the next assay, the system named is SNU1235. The note with it: 96 h; single agent; read-out: IC50 SMACm. On the procedure:
as §1

In another assay the test system is SNU-324. The note with it: 96 h; single agent; read-out: IC50 SMACm. As to the method: as §1
In the next assay the test system is NCI-H596. Particulars: Homo sapiens, NCI-H596, 96 h; single agent; read-out: IC50 SMACm. On the procedure:
as §1

A further assay relates to RERF-GC-1B. Particulars: 96 h; single agent; read-out: IC50 SMACm. As to the method:
as §1

A further assay relates to C75. Particulars: 96 h; single agent; read-out: IC50 SMACm. On the procedure: as §1
The subject of the next assay is NCI-H2126. The note with it: Homo sapiens, NCI-H2126, 96 h; single agent; read-out: IC50 SMACm. As to the method: as §1
The subject of another assay is SW1116. Particulars: Homo sapiens, SW 1116, 96 h; single agent; read-out: IC50 SMACm. As to the method:
as §1

In another assay the test system is SNU1181. The note with it: 96 h; single agent; read-out: IC50 SMACm. On the procedure:
as §1

The test system of a further assay is SNU1684. Particulars: 96 h; single agent; read-out: IC50 SMACm. As to the method:
as §1

For a further assay, the system named is NCI-H23. The note with it: Homo sapiens, NCI-H23, 96 h; single agent; read-out: IC50 SMACm. As to the method: as §1
Another assay concerns NCI-H1792. Particulars: Homo sapiens, NCI-H1792, 96 h; single agent; read-out: IC50 SMACm. As to the method: as §1
The test system of a further assay is SNU1544. Particulars: 96 h; single agent; read-out: IC50 SMACm. As to the method: as §1
The next assay has as its system SW620. Particulars: Homo sapiens, SW-620, 96 h; single agent; read-out: IC50 SMACm. On the procedure:
as §1

Another assay relates to RCM-1. The note with it: Homo sapiens, RCM-1, 96 h; single agent; read-out: IC50 SMACm. On the procedure:
as §1

The next assay relates to KP-2. Particulars: 96 h; single agent; read-out: IC50 SMACm. As to the method: as §1

pIC50: −log10 of the molar value.

For orientation: pIC50 means the negative decadic logarithm of the IC50, by convention in mol/L.

On to `CN[C@@H](C)C(=O)Nc1ccc(-c2c(-c3cccnc3OC)nc3cc(C)ccn23)c(C#Cc2ccc3c(C)nccc3c2)n1` [SMACm, BI 891065], for which the pIC50 was 5.51 in the assay on HCC1588; 5.67 in the assay with SNU1235; 5.33 with SNU-324; 5.36 in the assay on NCI-H596; 5.37 in the assay with RERF-GC-1B; 5.55 in the assay with C75. The negative-log IC50 (pIC50) with NCI-H2126 was 5.21; in the assay with SW1116, 5.35; in the assay with SNU1181, 5.29; in the assay with SNU1684, 5.49; in the assay on NCI-H23, 5.47; in the assay on NCI-H1792 it was 5.32. Besides, the pIC50 was 5.51 in the assay with SNU1544, 5.35 in the assay with SW620, 5.24 with RCM-1 and 5.34 in the assay on KP-2.

These data come from paper PMC12490239, “Combining BET inhibition with SMAC mimetics restricts tumor growth and triggers immune surveillance in preclinical cancer models” (Cell Reports Medicine, 2025).
